Assay results as given in ChEMBL document CHEMBL1201861, “Genomics of Drug Sensitity in Cancer screening data, Wellcome Trust Sanger Institute”.

Columns and labels:
Test in all cases: cells
EKVX = assay type: functional, cell-based, Homo sapiens; conditions: Homo sapiens, EKVX;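 further: growth inhibition of human EKVX cells, read out with a cell viability assay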
Description: SANGER: Inhibition of human EKVX cell growth in a cell viability assay.

NCI-H226 = assay type: functional, cell-based, Homo sapiens; conditions: Homo sapiens, NCI-H226;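 further: cell viability read-out used to gauge growth inhibition of the cells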
Description: SANGER: Inhibition of human NCI-H226 cell growth in a cell viability assay.

KARPAS-45 = assay type: functional, cell-based, Homo sapiens; conditions: Homo sapiens, KARPAS-45;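 further: inhibition of cell line growth, read out through a viability assay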
Description: SANGER: Inhibition of human KARPAS-45 cell growth in a cell viability assay.

LAMA-84 = assay type: functional, cell-based, Homo sapiens; conditions: Homo sapiens, LAMA-84;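 further: growth inhibition of LAMA-84 cells, read out with a cell viability assay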
Description: SANGER: Inhibition of human LAMA-84 cell growth in a cell viability assay.

C32 = assay type: functional, cell-based; conditions: Homo sapiens;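 further: cell viability assay, with IC50 reflecting inhibition of C32 cell growth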
Description: SANGER: Inhibition of human C32 cell growth in a cell viability assay.

SK-UT-1 = assay type: functional, cell-based, Homo sapiens; conditions: Homo sapiens, SK-UT-1;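 further: growth inhibition of SK-UT-1 cells, measured by a cell viability assay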
Description: SANGER: Inhibition of human SK-UT-1 cell growth in a cell viability assay.

JVM-2 = assay type: functional, cell-based, Homo sapiens; conditions: Homo sapiens, JVM-2;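 further: growth inhibition of JVM-2 cells determined by a cell viability assay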
Description: SANGER: Inhibition of human JVM-2 cell growth in a cell viability assay.

LC-2-ad = assay type: functional, cell-based, Homo sapiens; conditions: Homo sapiens, LC-2-ad;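 further: growth inhibition of human LC-2-ad cells, read out with a cell viability assay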
Description: SANGER: Inhibition of human LC-2-ad cell growth in a cell viability assay.

NB10 = assay type: functional, cell-based, Homo sapiens; conditions: Homo sapiens, NB10;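 further: growth inhibition of NB10 cells, read out by a cell viability assay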
Description: SANGER: Inhibition of human NB10 cell growth in a cell viability assay.

HL-60 = assay type: functional, cell-based, Homo sapiens; conditions: Homo sapiens, HL-60;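 further: growth inhibition of human HL-60 cells, read out with a cell viability assay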
Description: SANGER: Inhibition of human HL-60 cell growth in a cell viability assay.

A498 = assay type: functional, cell-based, Homo sapiens; conditions: Homo sapiens, A498;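 further: growth inhibition of human A498 cells, read out with a cell viability assay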
Description: SANGER: Inhibition of human A498 cell growth in a cell viability assay.

A4-Fuk = assay type: functional, cell-based, Homo sapiens; conditions: Homo sapiens, A4-Fuk;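 further: growth inhibition of A4-Fuk cells, read out by a cell viability assay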
Description: SANGER: Inhibition of human A4-Fuk cell growth in a cell viability assay.

A253 cell line = assay type: functional, cell-based, Homo sapiens; conditions: Homo sapiens, A253;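 further: growth inhibition of A253 cells, read out with a cell viability assay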
Description: SANGER: Inhibition of human A253 cell growth in a cell viability assay.

KU812 cell line = assay type: functional, cell-based, Homo sapiens; conditions: Homo sapiens, KU812;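 further: growth inhibition of KU812 cells, read out with a cell viability assay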
Description: SANGER: Inhibition of human KU812 cell growth in a cell viability assay.

KURAMOCHI = assay type: functional, cell-based, Homo sapiens; conditions: Homo sapiens, KURAMOCHI;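 further: growth inhibition of KURAMOCHI cells, read out with a cell viability assay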
Description: SANGER: Inhibition of human KURAMOCHI cell growth in a cell viability assay.

TE-11 = assay type: functional, cell-based; conditions: Homo sapiens;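 further: growth inhibition of human TE-11 cells, read out by a cell viability assay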
Description: SANGER: Inhibition of human TE-11 cell growth in a cell viability assay.

LB1047-RCC = assay type: functional, cell-based, Homo sapiens; conditions: Homo sapiens, LB1047-RCC;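 further: inhibition of cell growth, determined with a cell viability assay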
Description: SANGER: Inhibition of human LB1047-RCC cell growth in a cell viability assay.

RXF 393 = assay type: functional, cell-based, Homo sapiens; conditions: Homo sapiens, RXF 393;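 further: growth inhibition of human RXF 393 cells, read out with a cell viability assay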
Description: SANGER: Inhibition of human RXF393 cell growth in a cell viability assay.

J-RT3-T3-5 = assay type: functional, cell-based, Homo sapiens; conditions: Homo sapiens, J-RT3-T3-5;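 further: cell viability assay measuring growth inhibition of human J-RT3-T3-5 cells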
Description: SANGER: Inhibition of human J-RT3-T3-5 cell growth in a cell viability assay.

HT = assay type: functional, cell-based, Homo sapiens; conditions: Homo sapiens, HT
Description: SANGER: Inhibition of human HT cell growth in a cell viability assay.

CAS-1 = assay type: functional, cell-based, Homo sapiens; conditions: Homo sapiens, CAS-1;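 further: growth inhibition of CAS-1 cells, measured with a cell viability assay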
Description: SANGER: Inhibition of human CAS-1 cell growth in a cell viability assay.

UACC-257 = assay type: functional, cell-based, Homo sapiens; conditions: Homo sapiens, UACC-257
Description: SANGER: Inhibition of human UACC-257 cell growth in a cell viability assay.

TE-12 = assay type: functional, cell-based, Homo sapiens; conditions: Homo sapiens, TE-12;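 further: growth inhibition of TE-12 cells, read out by a cell viability assay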
Description: SANGER: Inhibition of human TE-12 cell growth in a cell viability assay.

NCI-H1155 = assay type: functional, cell-based, Homo sapiens; conditions: Homo sapiens, NCI-H1155;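 further: cell growth inhibition measured by a viability assay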
Description: SANGER: Inhibition of human NCI-H1155 cell growth in a cell viability assay.

ACN = assay type: functional, cell-based, Homo sapiens; conditions: Homo sapiens, ACN;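 further: growth inhibition of the human ACN cell line, read out via cell viability testing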
Description: SANGER: Inhibition of human ACN cell growth in a cell viability assay.

TE-1 = assay type: functional, cell-based, Homo sapiens; conditions: Homo sapiens, TE-1
Description: SANGER: Inhibition of human TE-1 cell growth in a cell viability assay.

SK-PN-DW = assay type: functional, cell-based, Homo sapiens; conditions: Homo sapiens, SK-PN-DW;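 further: growth inhibition measured with a viability assay on these cells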
Description: SANGER: Inhibition of human SK-PN-DW cell growth in a cell viability assay.

C-33-A = assay type: functional, cell-based; conditions: Homo sapiens;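 further: cell viability assay measuring growth inhibition of C-33-A cells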
Description: SANGER: Inhibition of human C-33-A cell growth in a cell viability assay.

GI-1 = assay type: functional, cell-based, Homo sapiens; conditions: Homo sapiens, GI-1;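 further: growth inhibition of human GI-1 cells, measured with a cell viability readout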
Description: SANGER: Inhibition of human GI-1 cell growth in a cell viability assay.

LAN-6 = assay type: functional, cell-based, Homo sapiens; conditions: Homo sapiens, LAN-6;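 further: growth inhibition of LAN-6 cells, determined with a cell viability assay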
Description: SANGER: Inhibition of human LAN-6 cell growth in a cell viability assay.

TGBC24TKB = assay type: functional, cell-based; conditions: Homo sapiens;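 further: growth inhibition of human TGBC24TKB cells, read out with a cell viability assay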
Description: SANGER: Inhibition of human TGBC24TKB cell growth in a cell viability assay.

DU-4475 = assay type: functional, cell-based, Homo sapiens; conditions: Homo sapiens, DU-4475
Description: SANGER: Inhibition of human DU-4475 cell growth in a cell viability assay.

P30-OHK = assay type: functional, cell-based, Homo sapiens; conditions: Homo sapiens, P30-OHK;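 further: growth inhibition of the P30-OHK cell line, read out with a cell viability assay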
Description: SANGER: Inhibition of human P30-OHK cell growth in a cell viability assay.

ES3 = assay type: functional, cell-based, Homo sapiens; conditions: Homo sapiens, ES3;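 further: growth inhibition of ES3 cells, read out with a cell viability assay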
Description: SANGER: Inhibition of human ES3 cell growth in a cell viability assay.

LU-134-A = assay type: functional, cell-based, Homo sapiens; conditions: Homo sapiens, LU-134-A
Description: SANGER: Inhibition of human LU-134-A cell growth in a cell viability assay.

LNCaP-Clone-FGC = assay type: functional, cell-based, Homo sapiens; conditions: Homo sapiens, LNCaP-Clone-FGC
Description: SANGER: Inhibition of human LNCaP-Clone-FGC cell growth in a cell viability assay.

MC116 = assay type: functional, cell-based, Homo sapiens; conditions: Homo sapiens, MC116;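 further: growth inhibition of MC116 cells, read out with a cell viability assay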
Description: SANGER: Inhibition of human MC116 cell growth in a cell viability assay.

ES4 = assay type: functional, cell-based, Homo sapiens; conditions: Homo sapiens, ES4;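 further: growth inhibition of human ES4 cells, read out by a cell viability assay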
Description: SANGER: Inhibition of human ES4 cell growth in a cell viability assay.

DOHH-2 = assay type: functional, cell-based, Homo sapiens; conditions: Homo sapiens, DOHH-2;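 further: growth inhibition of human DOHH-2 cells, read out with a cell viability assay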
Description: SANGER: Inhibition of human DOHH-2 cell growth in a cell viability assay.

NKM-1 = assay type: functional, cell-based, Homo sapiens; conditions: Homo sapiens, NKM-1;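 further: growth inhibition of NKM-1 cells, read out with a cell viability assay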
Description: SANGER: Inhibition of human NKM-1 cell growth in a cell viability assay.

HDLM-2 = assay type: functional, cell-based, Homo sapiens; conditions: Homo sapiens, HDLM-2;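 further: cell viability assay measuring suppression of HDLM-2 proliferation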
Description: SANGER: Inhibition of human HDLM-2 cell growth in a cell viability assay.

SCH = assay type: functional, cell-based, Homo sapiens; conditions: Homo sapiens, SCH;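 further: growth inhibition of human SCH cells, read out in a cell viability assay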
Description: SANGER: Inhibition of human SCH cell growth in a cell viability assay.

CTV-1 = assay type: functional, cell-based, Homo sapiens; conditions: Homo sapiens, CTV-1;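 further: growth inhibition of the cell line, read out with a cell viability assay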
Description: SANGER: Inhibition of human CTV-1 cell growth in a cell viability assay.

LS-411N = assay type: functional, cell-based, Homo sapiens; conditions: Homo sapiens, LS-411N
SW756 = assay type: functional, cell-based; conditions: Homo sapiens;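 further: growth inhibition of human SW756 cells, read out with a cell viability assay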
Description: SANGER: Inhibition of human SW756 cell growth in a cell viability assay.

DBTRG-05MG = assay type: functional, cell-based; conditions: Homo sapiens;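 further: cell viability assay measuring growth inhibition of human DBTRG-05MG cells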
Description: SANGER: Inhibition of human DBTRG-05MG cell growth in a cell viability assay.

SW 954 = assay type: functional, cell-based, Homo sapiens; conditions: Homo sapiens, SW 954;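 further: growth inhibition of SW954 human cancer cells, read out as cell viability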
Description: SANGER: Inhibition of human SW954 cell growth in a cell viability assay.

LB771-HNC = assay type: functional, cell-based; conditions: Homo sapiens;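 further: growth inhibition of LB771-HNC human cells, read out with a cell viability assay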
Description: SANGER: Inhibition of human LB771-HNC cell growth in a cell viability assay.

HCC2157 = assay type: functional, cell-based, Homo sapiens; conditions: Homo sapiens, HCC2157;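 further: growth inhibition of the cancer cell line, read out as cell viability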
Description: SANGER: Inhibition of human HCC2157 cell growth in a cell viability assay.

KY821 = assay type: functional, cell-based, Homo sapiens; conditions: Homo sapiens, KY821;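 further: growth inhibition of human KY821 cells, read out by a cell viability assay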
Description: SANGER: Inhibition of human KY821 cell growth in a cell viability assay.

EW-16 = assay type: functional, cell-based, Homo sapiens; conditions: Homo sapiens, EW-16;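 further: growth inhibition of human EW-16 cells, read out as cell viability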
Description: SANGER: Inhibition of human EW-16 cell growth in a cell viability assay.

Cc1ccc(C(=O)Nc2ccc(CN3CCN(C)CC3)c(C(F)(F)F)c2)cc1C#Cc1cnc2cccnn12 [PONATINIB]
IC50 (EKVX): > 512 nM | IC50 (NCI-H226): > 512 nM | IC50 (KARPAS-45): 489 nM | IC50 (LAMA-84): < 2 nM | IC50 (C32): > 512 nM | IC50 (SK-UT-1): > 512 nM | IC50 (JVM-2): > 512 nM | IC50 (LC-2-ad): 243 nM | IC50 (NB10): > 512 nM | IC50 (HL-60): > 512 nM | IC50 (A498): > 512 nM | IC50 (A4-Fuk): > 512 nM | IC50 (A253 cell line): > 512 nM | IC50 (KU812 cell line): 28.5 nM | IC50 (KURAMOCHI): 284 nM | IC50 (TE-11): > 512 nM | IC50 (LB1047-RCC): > 512 nM | IC50 (RXF 393): > 512 nM | IC50 (J-RT3-T3-5): > 512 nM | IC50 (HT): > 512 nM | IC50 (CAS-1): 283 nM | IC50 (UACC-257): > 512 nM | IC50 (TE-12): > 512 nM | IC50 (NCI-H1155): > 512 nM | IC50 (ACN): 349 nM | IC50 (TE-1): > 512 nM | IC50 (SK-PN-DW): > 512 nM | IC50 (C-33-A): > 512 nM | IC50 (GI-1): > 512 nM | IC50 (LAN-6): > 512 nM | IC50 (TGBC24TKB): > 512 nM | IC50 (DU-4475): 495 nM | IC50 (P30-OHK): 157 nM | IC50 (ES3): > 512 nM | IC50 (LU-134-A): > 512 nM | IC50 (LNCaP-Clone-FGC): > 512 nM | IC50 (MC116): > 512 nM | IC50 (ES4): > 512 nM | IC50 (DOHH-2): 48 nM | IC50 (NKM-1): 6.55 nM | IC50 (HDLM-2): > 512 nM | IC50 (SCH): > 512 nM | IC50 (CTV-1): 5.21 nM | IC50 (LS-411N): > 512 nM | IC50 (SW756): > 512 nM | IC50 (DBTRG-05MG): 381 nM | IC50 (SW 954): > 512 nM | IC50 (LB771-HNC): > 512 nM | IC50 (HCC2157): > 512 nM | IC50 (KY821): > 512 nM | IC50 (EW-16): > 512 nM
